According to paper PMC6508865, “Dynamics of thymol dietary supplementation in quail (Coturnix japonica): Linking bioavailability, effects on egg yolk total fatty acids and performance traits” (PLoS ONE, 2019):

Experiments:
[1] = tested on: quail; set-up: method as in PMID 28474397; details: THY6, 6.25 g of THY per kg of feed; cited from earlier work
[2] = tested on: female quail; set-up: method as in ref 41 = [41]; 41 Labaque MC , Kembro JM , Luna A , Marin RH . Effects of thymol feed supplementation on female Japanese quail ( Coturnix coturnix ) behavioral fear response . Anim Feed Sci Technol . 2013; 183 ( 1–); details: THY2, 2 g of THY per kg of feed; cited from earlier work
[3] = tested on: female Japanese quail (Coturnix japonica); assay: Female performance traits (body weight, feed intake, egg laying, egg physical characteristics); assay type: in vivo
From the text: A total of 50 eighty-five days-old female quail of homogeneous body weights (251 ± 1 g; Mean ± SE) and in their egg-laying peak were selected from an initial group of 96 female individuals. All birds continued receiving a basal diet between 85 and 100 days of age and all variables (see below for details) were registered along this period (Pre-supplementation period, Fig 1). From 100 to 128 days of age (S period, Fig 1), females were randomly assigned to either a chronic dietary supplementation with one of 3 THY doses (THY2, THY4 and THY6; 10 females each) or to one of 2 control groups (basal diet, BASAL, and basal diet with vehicle solution, VEHICLE; 10 females each). Once finished the S period, half of the quail were slaughtered for histological analysis (n = 25; Slaughter 1, Fig 1) and the other half were subjected to a pS period of 21 days, during which all females received the BASAL diet (pS, Fig 1). After this period, the remaining 25 animals were also slaughtered for histological analysis (Slaughter 2, Fig 1). In this way, we assessed whether THY induced changes in variables indicative of tissue damage and if so, whether the potential damages could reverse after 3 weeks of supplement withdrawal.
(§1) To assess changes in egg yolk total FA composition, egg physical characteristics, laying rate, body weight, feed intake and general welfare, during the S and pS periods, five sampling points were defined (Sample points, Fig 1): one initial sample point (at 0 days of S); three sample points during the S period (at 7, 14 and 28 days of S); and one sample point at the end of the pS period (21 days of pS). It should be noted that for determinations of THY concentration, eggs and quail droppings were collected offset from the other variables measured by 2 days, thus were collected on days 2, 9, 16, and 26 days of S, and 17 days of pS, respectively.
Female performance was evaluated through the measurement of body weight, feed intake, egg laying rate, egg physical characteristics and a general welfare quality assessment. Body weight was measured once a week throughout the experimental period. Daily feed intake (DFI) was estimated as the difference between the amount of feed supplied to each animal (60 g) and the rest that remained in the feeders the next day (g of feed/day/quail). Egg laying was registered daily and the weekly laying rate was calculated as: (number of eggs / 7 days) x 100. Egg weight, quality characteristics (such as intact, membranous, soft shell and broken shell), morphometric characteristics (egg shape index = (egg width / egg length) x 100) and percentage of constituents (egg yolk, albumen and shell) were registered at each sampling point.

[4] = tested on: female Japanese quail (Coturnix japonica); assay: Total fatty acid analysis in egg yolks (GC/MS of FAME); assay type: in vivo; details: for egg yolk SFA reduction disappeared after post-supplementation / persistence of reduced egg yolk 16:0 concentration after post-supplementation / persistence of reduced egg yolk 18:0 concentration after post-supplementation: 21 days of pS
From the text: All birds continued receiving a basal diet between 85 and 100 days of age and all variables (see below for details) were registered along this period (Pre-supplementation period, Fig 1). […] Once finished the S period, half of the quail were slaughtered for histological analysis (n = 25; Slaughter 1, Fig 1) and the other half were subjected to a pS period of 21 days, during which all females received the BASAL diet (pS, Fig 1). After this period, the remaining 25 animals were also slaughtered for histological analysis (Slaughter 2, Fig 1). In this way, we assessed whether THY induced changes in variables indicative of tissue damage and if so, whether the potential damages could reverse after 3 weeks of supplement withdrawal.
as §1
Eggs were obtained at each sample point (Sample points, Fig 1) and stored at -20°C until yolk total fatty acids analysis. Lipids were extracted from the yolk following homogenization in a suitable excess of chloroform/methanol (2:1 v/v). The solvents were removed under reduced pressure in a rotary evaporator. Lipids were subjected to alkaline saponification (1 mol/L potassium hydroxide in methanol), and the unsaponifiable matter was extracted with n-hexane. The fatty acid methyl esters (FAMEs) were prepared by transmethylation through treatment with 1 mol/L sulfuric acid in methanol and analyzed by gas chromatography/mass spectrometry (GC/MS). All chemicals used in this study were reagent-grade commercial products. FAMEs were analyzed by gas chromatography on a 60 m fused capillary column with an internal diameter of 0.25 mm (PerkinElmer Elite-WAX Polyethylene Glycol). The analysis was performed on a PerkinElmer Clarus® 600 GC/MS system equipped with a flame ionization detector (Waltham, MA, USA). […] The injection port temperature was 250°C and the detector temperature was 250°C. […] Peak identification was carried out by comparing the known retention times for the fatty acids reported with the temperature program and the chromatographic system used.

[5] = overall mean over BASAL, VEHICLE and 2, 4, 6.25 g thymol/kg feed diets and five sampling times, no effect of diet
[6] = THY6, 6.25 g of thymol/kg of feed
[7] = all THY supplemented diets (2, 4, 6.25 g/kg of feed)

Cc1ccc(C(C)C)c(O)c1 [THY, 2 isopropyl-5-methylphenol]
PUFA and SFA in yolk total fatty acids and triglycerides of the quail fertile egg [1]: enhances PUFA deposition to the detriment of SFA | bird's locomotor activity [2]: without affecting | female quail fear responses when exposed to stressful situations [2]: reduces female quail fear responses | effect on physical egg traits ([3]; 2, 4, 6.25 g of THY/kg feed): did not affect | effect of the diet supplied on performance variables (body weight, feed intake, egg laying, morphometric characteristics and constituents of eggs) ([3]; 2, 4, 6.25 g of THY/kg feed vs controls, 28 days S and 21 days pS): no effects | Egg shape index ([3]; (egg width / egg length) x 100, overall mean over BASAL, VEHICLE and 2, 4, 6.25 g thymol/kg feed diets and five sampling times, no effect of diet): 79.5% | daily feed intake ([3]; no differences between treatments, all diets): 30.3 ± 1 g/day/animal | Egg albumen [3, 5]: 48.6% | Egg shell [3, 5]: 14.4% | Egg weight [3, 5]: 11.3 g | Egg yolk [3, 5]: 37.0% | Weekly Body Weight per individual [3, 5]: 254 g | Weekly Feed Intake per individual [3, 5]: 212 g | Cumulative number of eggs ([3]; overall mean over BASAL, VEHICLE and 2, 4, 6.25 g thymol/kg feed diets, no effect of diet): 42 | effect on egg yolk MUFA ([4]; 2, 4, 6.25 g of thymol/kg of feed, diet, time of sampling or interaction): No differences | supplementation time by which reduced egg yolk 16:0 (palmitic acid) concentration was achieved ([4]; THY2, 2 g of thymol/kg of feed): 28 days of S | supplementation time by which reduced egg yolk 18:0 (stearic acid) concentration was achieved ([4]; THY2, 2 g of thymol/kg of feed): 28 days of S | supplementation time required for increasing egg yolk 22:5 (docosapentaenoic acid) ([4]; THY2, 2 g of thymol/kg of feed): 14 days of S | supplementation time required to reduce egg yolk SFA concentration ([4]; THY2, 2 g of thymol/kg of feed): 28 days of S | egg yolk SFA reduction disappeared after post-supplementation ([4]; THY2, 2 g of thymol/kg of feed): disappeared | persistence of reduced egg yolk 16:0 concentration after post-supplementation ([4]; THY2, 2 g of thymol/kg of feed): returned to initial levels | persistence of reduced egg yolk 18:0 concentration after post-supplementation ([4]; THY2, 2 g of thymol/kg of feed): continued | effect on egg yolk PUFA concentration ([4]; THY2, 2 g of thymol/kg of feed, S period): failed to increase PUFA | effect on egg yolk 16:1 (palmitoleic acid) ([4]; THY2, 2 g of thymol/kg of feed, by 7 and 14 days of S): transient decrease | day of supplementation by which egg yolk polyunsaturated fatty acids increased ([4]; THY4, 4 g of thymol/kg of feed): 14 day of supplementation | supplementation time by which reduced egg yolk 16:0 (palmitic acid) concentration was achieved ([4]; THY4, 4 g of thymol/kg of feed): 14 days of S | supplementation time by which reduced egg yolk 18:0 (stearic acid) concentration was achieved ([4]; THY4, 4 g of thymol/kg of feed): 14 days of S | supplementation time from which egg yolk 18:3 (linolenic acid) concentration was higher ([4]; THY4, 4 g of thymol/kg of feed): 14 days of S | supplementation time from which egg yolk 20:4 (arachidonic acid) concentration was higher ([4]; THY4, 4 g of thymol/kg of feed): 14 days of S | supplementation time required for increasing egg yolk 22:5 (docosapentaenoic acid) ([4]; THY4, 4 g of thymol/kg of feed): 14 days of S | supplementation time required to reduce egg yolk SFA concentration ([4]; THY4, 4 g of thymol/kg of feed): 14 days of S | egg yolk SFA reduction disappeared after post-supplementation ([4]; THY4, 4 g of thymol/kg of feed): not | persistence of reduced egg yolk 16:0 concentration after post-supplementation ([4]; THY4, 4 g of thymol/kg of feed): continued | persistence of reduced egg yolk 18:0 concentration after post-supplementation ([4]; THY4, 4 g of thymol/kg of feed): continued | effect on egg yolk PUFA concentration ([4]; THY4, 4 g of thymol/kg of feed, S period and 21 days of pS): induced PUFA increments that remained enhanced even at 21 days of pS | effect on egg yolk 16:1 (palmitoleic acid) ([4]; THY4, 4 g of thymol/kg of feed, at 21 days of pS): transient decrease | day of supplementation by which egg yolk polyunsaturated fatty acids increased [4, 6]: 14 day of supplementation | supplementation time by which reduced egg yolk 16:0 (palmitic acid) concentration was achieved [4, 6]: 14 days of S | supplementation time by which reduced egg yolk 18:0 (stearic acid) concentration was achieved [4, 6]: 14 days of S | supplementation time from which egg yolk 18:3 (linolenic acid) concentration was higher [4, 6]: 14 days of S | supplementation time from which egg yolk 20:4 (arachidonic acid) concentration was higher [4, 6]: 14 days of S | supplementation time required for increasing egg yolk 22:5 (docosapentaenoic acid) [4, 6]: 7 days of S | egg yolk SFA reduction disappeared after post-supplementation [4, 6]: not | persistence of reduced egg yolk 16:0 concentration after post-supplementation [4, 6]: continued | persistence of reduced egg yolk 18:0 concentration after post-supplementation [4, 6]: returned to initial levels | effect on egg yolk PUFA concentration ([4]; THY6, 6.25 g of thymol/kg of feed, S period and 21 days of pS): induced PUFA increments that remained enhanced even at 21 days of pS | effect on egg yolk 16:1 (palmitoleic acid) ([4]; THY6, 6.25 g of thymol/kg of feed, at 21 days of pS): transient decrease | supplementation time required to reduce egg yolk SFA concentration ([4]; THY6, 6.25 g of thymol/kg of feed, reduction of even greater magnitude): 14 days of S | supplementation time from which egg yolk 20:5 (eicosapentaenoic acid) was increased [4, 7]: 7 days of S | supplementation time from which egg yolk 22:6 (docosahexaenoic acid) was increased [4, 7]: 7 days of S
